Experimental findings from patent US20120302616A1, “METHOD OF TREATMENT OF OBSESSIVE COMPULSIVE DISORDER WITH ONDANSETRON” (priority 2010, published 2012) are described below.

The structures appear in SMILES notation. Several values for one entry are separate records, joined by “and”; a condition that tells them apart may be missing. Identical values can stand only once.

The subject of the test is patients with treatment-resistant OCD. The experiment in a line: Ondansetron augmentation of SRI plus antipsychotic therapy, single-blind 12-week study (YBOCS, CGI, MADRS). The class given is in vivo, human. The text has this:
Between March 2008 and November 2008, fourteen adults aged 18 to 55 were enrolled in a study at the Institute for Neuroscience, Florence, Italy. […] All diagnoses were established utilizing a structured interview, the Structured Clinical Interview for DSM IV Axis I Disorders (SCID I). (See Spitzer, R. L. et al. ARCH GEN PSYCHIATRY 49(8):624-649) Potential subjects with a history of alcohol or substance abuse, current severe depressive symptoms, bipolar disorder, panic disorder, schizophrenia, other psychiatric conditions, heart disease, arrhythmia, liver problems (including cirrhosis), seizures, glaucoma or serious medical disease were excluded. Patients with hoarding as their only OCD symptom and women of childbearing potential not using a medically acceptable contraceptive method were also excluded. After being fully informed about the study and signing an informed consent approved by the Internal Institutional Review Board, subjects were administered an ondansetron hydrochloride (oral solution) dosage of 0.25 mg twice a day for 6 weeks, followed by 0.5 mg twice a day for 6 weeks for a total observation period of 12 weeks. […] The Y-BOCS, Montgomery-Asberg Depression Rating Scale (MADRS) (see Montgomery, S. A., BR J PSYCHIATRY 1979; 134:382-389) was administered at screening and baseline, and these assessments were repeated at every follow-up visit at 2-week intervals, along with the Clinical Global Impressions-Improvement (CGI-I) rating (see Guy, W. ECDEU Assessment Manual for Psychopharmacology. US Dept Health, Education, and Welfare publication (ADM) 76-338. Rockville, Md.: National Institute of Mental Health; 1976:218-222) and an unpublished Drug Effect scale. The Drug Effect scale asked subjects to rate “How anxious are you now?” on a scale of zero (not at all) to 10 (“the most anxious I have ever been”). Similar rating questions have been “Do you experience appearance or increment in frequency of headaches?”, “Do you experience appearance or increment in frequency of headaches fatigue?” and “Do you experience appearance or increment in frequency of headaches constipation” and so on regarding other common ondansetron side effects (diarrhea, urinary retention, itching, and dizziness). Furthermore, each evening during the first week of study medication, a study psychiatrist called the subject to ask for major or unexpected collateral effects (as chest pain, an unexplained skin rash, or tremors.). […] (See […]. et al., AM J PSYCHIATRY 1997; 154:320-321) Subjects with MADRS scores ≧18 were excluded. Ratings were administered by an investigator who was blind to the treatment condition of the patients. Given the small sample size, mean changes from baseline in rating scales were tested with a non-parametric method based on ranks (Wilcoxon signed rank test), using a two-tailed significance level of p≦0.05. Relationships among rated and demographical variables were tested with Spearman's rank correlation tests, using a two-tailed significance level of p≦0.05. Age, baseline OCD severity, and depressive symptoms were controlled for by stratifying through the Mantel-Haenszel χ2 test. Body mass index (BMI) was adjusted given the differences of ondansetron bioavailability according to BMI.

Where [1] appears, read: End of 6th week, Non responder (n = 5).
Setting [2] is: End of 6th week, Responder (n = 9).
Setting [3] is: End of 12th week, Non responder (n = 5).
Setting [4] is: End of 12th week, Responder (n = 9).
Setting [5] is: from baseline, individual patients 1-14.

For the compound `Cc1nccn1CC1CCc2c(c3ccccc3n2C)C1=O` (centres unmarked) [ondansetron], the “YBOCS Score” value runs as follows: (6 weeks, individual patients 1-14) 25 (3×) and 28 and 17 (2×) and 16 and 27 and 26 and 24 (3×) and 19 and 21; (12 weeks, individual patients 1-14) 25 (3×) and 15 (2×) and 14 and 30 and 23 and 22 (2×) and 24 and 18 and 17 and 20. Also, the “average YBOCS score decrease of the whole group” value by setting is: (6 weeks, n=14) 16%; (12 weeks, n=14) 23%. Also, the “patients reaching YBOCS criteria for treatment response (decrease of ≧25%)” value (12th week, 9/14) was determined as 64.2%. The “patients very much improved or much improved (CGI-I 1 or 2)” value (12th week, of 14) is given as “seven”. Moreover, the “patients with greater than 25% improvement in OCD symptoms” value (12 weeks, n=14) was “Sixty-four”. Moreover, the “CGI (mean)” value is reported as 4.6 under setting [1], 3.4 under setting [2], 4.8 under setting [3] and 2.3 under setting [4]. For the same compound, the “MADRS (mean)” value under setting [1] was found to be 8.0, the “MADRS (mean)” value under setting [2] is on record as 6.7, the “MADRS (mean)” value under setting [3] is 7.6 and the “MADRS (mean)” value under setting [4] came to 6.8. For the same compound, the “YBOCS (mean)” value under setting [3] was determined as 21.4. In addition, for the setting “Patient 11 (citalopram 60 mg/day and risperidone 2 mg/day), 12th week”, the YBOCS score decrease was no less than 35%. The “Mean MADRS scores change from baseline” value (baseline to the end of week 1) is on record as “did not change significantly”. The “YBOCS Percent Reduction at 6 weeks” value under setting [5] is 20.00% (2×) and 15.00% and .00%. Further, the “YBOCS Percent Reduction at 12 weeks” value under setting [5] is 28.57% and 25.00% (2×) and 30.00%. For the same compound, the “patients with significant improvement in OCD symptoms” value (out of 14, within 12 weeks of treatment) stood at 9. The “Clinical Global Impressions-Improvement (CGI-I) scores” value (through week 12) was “improved concurrent with improvement in the YBOCS scores”. Also, the “outcome after discontinuation of the ondansetron” value (two responder patients) is listed as “experienced worsening”.
